Strand notation (5' to 3'): a small letter for the sugar, then the base; units joined by * are phosphorothioate-linked, units joined directly phosphodiester-linked; [ ] holds rarer units or linkages, { } end groups; capitals alone tell only the bases. k = constrained ethyl (cEt); [5mC] = 5-methylcytosine; d = 2'-deoxy (DNA)
Test system: Yap1 mRNA
Test: Antisense inhibition of human Yap1 in A-431 cells by cEt gapmers, single dose (Example 2, RTS4814)
Format: cell-based
In short: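 A-431 cells (5,000/well) received 2,000 nM oligonucleotide by free uptake for about 48 h. Yap1 mRNA was then quantified by RT-qPCR with primer probe set RTS4814, normalized to RIBOGREEN total RNA, and reported as % of untreated control; asterisked values mark oligos inside the amplicon.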

[1] = Table 23, Yap1 mRNA as percent of untreated control, 3-10-3 cEt gapmers, single dose
[2] = Table 33, Yap1 mRNA, percent of untreated control, 3-10-3 cEt gapmers targeting SEQ ID NO.: 1, and 2
[3] = Table 18, A-431 cells, 5,000 cells per well, free uptake, 2,000 nM modified oligonucleotide, approx. 48 hours, RTS4814, normalized to RIBOGREEN, Yap1 mRNA as percent of untreated control
[4] = Table 25, Yap1 mRNA as percent of untreated control, 3-10-3 cEt gapmers targeting SEQ ID NO.: 1, and 2
[5] = A-431 cells, 5,000 cells per well, free uptake, 2,000 nM modified oligonucleotide, approx. 48 hours, RTS4814, normalized to RIBOGREEN, Table 4, asterisk (*) = targets amplicon region of primer probe set
[6] = Yap1 mRNA as percent of untreated control, A-431 cells, 3-10-3 cEt gapmers targeting SEQ ID NO.: 1, and 2, Table 31
[7] = Table 5, A-431 cells, 5,000 cells per well, free uptake, 2,000 nM modified oligonucleotide, approx. 48 hours, RTS4814, normalized to RIBOGREEN, Yap1 mRNA relative to untreated control cells
[8] = Table 21, Yap1 mRNA, percent of untreated control, 3-10-3 cEt gapmers targeting SEQ ID NO.: 1 and 2
[9] = Table 32, Yap1 mRNA, percent of untreated control, 3-10-3 cEt gapmers targeting SEQ ID NO.: 1, and 2
[10] = Table 6, A-431 cells, 5,000 cells per well, free uptake, 2,000 nM modified oligonucleotide, approx. 48 hours, RTS4814, normalized to RIBOGREEN, Yap1 mRNA relative to untreated control cells
[11] = Yap1 mRNA as percent of untreated control, A-431 cells, 3-10-3 cEt gapmers targeting SEQ ID NO.: 1, and 2, Table 30
[12] = Table 20, Yap1 mRNA, percent of untreated control, 3-10-3 cEt gapmers targeting SEQ ID NO.: 1 and 2
[13] = Table 19, A-431 cells, 5,000 cells per well, free uptake, 2,000 nM modified oligonucleotide, approx. 48 hours, RTS4814, normalized to RIBOGREEN, Yap1 mRNA as percent of untreated control

1075689 (k[5mC]*kA*kA*d[5mC]*dT*dA*dT*dA*d[5mC]*dA*dA*dG*dG*k[5mC]*kA*kA; antisense) [Compound 1075689]
YAP1 (% UTC) [1]: 4 % UTC

1076179 (kA*kA*kT*dT*dA*dG*d[5mC]*d[5mC]*dA*dA*d[5mC]*d[5mC]*dA*k[5mC]*k[5mC]*kT; antisense) [compound 1076179]
YAP1 (% UTC) [2]: 38 % UTC

1075172 (antisense k[5mC]*kT*kT*dT*dA*d[5mC]*dA*dT*dG*dA*dA*d[5mC]*dT*kG*kA*kT) [Compound 1075172]
YAP1 (% UTC) [3]: 14 % UTC

1076235 (kT*k[5mC]*kA*dA*dA*dA*dT*dA*dA*dT*d[5mC]*dA*dG*k[5mC]*k[5mC]*k[5mC]; antisense) [Compound 1076235]
YAP1 (% UTC) [4]: 34 % UTC

1076138 (kA*kG*k[5mC]*d[5mC]*dA*dA*d[5mC]*dA*dA*dT*dT*dT*dT*kT*kG*kG; antisense) [Compound 1076138]
YAP1 (% UTC) (Table 24, Yap1 mRNA as percent of untreated control, 3-10-3 cEt gapmers targeting SEQ ID NO.: 1, and 2): 113 % UTC

1074355 (antisense kA*kG*kG*dG*dA*d[5mC]*dA*d[5mC]*dT*dG*dT*dA*dG*k[5mC]*kT*kG) [compound 1074355]
YAP1 (% UTC) [2]: 55 % UTC

716556 (kG*k[5mC]*kA*dT*dT*dA*dA*dA*dG*dA*dA*dT*dT*k[5mC]*kT*k[5mC]; antisense) [Compound 716556]
YAP1 (% UTC) [5]: 39 % UTC

716358 (k[5mC]*kG*kA*dG*dG*dG*d[5mC]*dT*dA*d[5mC]*dG*d[5mC]*d[5mC]*k[5mC]*kG*kG; antisense) [Compound 716358]
YAP1 (% UTC) [5]: 104 % UTC

1075185 (kG*k[5mC]*k[5mC]*d[5mC]*dA*dA*dG*dA*dA*d[5mC]*dA*d[5mC]*dT*kG*kG*kT; antisense) [compound 1075185]
YAP1 (% UTC) [6]: 78 % UTC

716470 (kA*kA*kT*d[5mC]*dG*dA*dG*dA*d[5mC]*dT*dT*dA*dA*kA*kA*kA; antisense) [Compound 716470]
YAP1 (% UTC) [7]: 104 % UTC

1075175 (antisense kA*k[5mC]*kT*dG*dA*dA*dA*dG*dA*dT*dT*d[5mC]*d[5mC]*kA*kT*kG) [Compound 1075175]
YAP1 (% UTC) [8]: 99 % UTC

1074130 (kA*kT*k[5mC]*d[5mC]*d[5mC]*d[5mC]*d[5mC]*dG*d[5mC]*d[5mC]*d[5mC]*d[5mC]*dG*kG*k[5mC]*kG; antisense) [compound 1074130]
YAP1 (% UTC) [9]: 119 % UTC

716546 (k[5mC]*kA*k[5mC]*dA*dA*dT*dT*dA*dA*dT*dT*dA*d[5mC]*kT*kG*kT; antisense) [Compound 716546]
YAP1 (% UTC) [10]: 103 % UTC

1074951 (antisense k[5mC]*kA*kT*d[5mC]*dA*dG*dG*dT*dT*dA*dA*dG*dT*kG*kA*kT) [Compound 1074951]
YAP1 (% UTC) [8]: 85 % UTC

1075251 (kT*kA*kA*dT*dT*dA*d[5mC]*dG*dA*dT*dT*dA*dG*kA*kT*k[5mC]; antisense) [compound 1075251]
YAP1 (% UTC) [2]: 79 % UTC

716533 (antisense k[5mC]*kA*kA*dT*dT*d[5mC]*dA*dA*dG*dA*dA*dT*dA*k[5mC]*k[5mC]*k[5mC]) [Compound 716533]
YAP1 (% UTC) [7]: 64 % UTC

1075409 (antisense k[5mC]*kT*kT*dT*dA*dA*dA*dT*dA*dG*d[5mC]*dA*dG*kA*kG*kG) [compound 1075409]
YAP1 (% UTC) [6]: 22 % UTC

1076516 (antisense k[5mC]*kA*kT*dA*dA*dA*d[5mC]*dA*dT*dG*dA*dG*dT*kG*kG*kT) [Compound 1076516]
YAP1 (% UTC) [3]: 8 % UTC

1075440 (antisense kA*kA*kA*dT*dT*dA*dT*dT*dA*dG*dT*dT*dG*kT*k[5mC]*kG) [compound 1075440]
YAP1 (% UTC) [11]: 28 % UTC

1074983 (antisense k[5mC]*kA*k[5mC]*d[5mC]*dT*dT*dT*dT*dA*dT*dT*dG*d[5mC]*k[5mC]*kA*kG) [Compound 1074983]
YAP1 (% UTC) [8]: 11 % UTC

716477 (kG*kT*kG*dT*dT*d[5mC]*dA*dT*dT*dA*d[5mC]*dA*dA*kA*kT*kG; antisense) [Compound 716477]
YAP1 (% UTC) [10]: 42 % UTC

1074923 (antisense kG*kG*kG*d[5mC]*dG*dG*dT*dA*dA*d[5mC]*dT*d[5mC]*dT*kT*k[5mC]*kT) [Compound 1074923]
YAP1 (% UTC) [4]: 73 % UTC

716380 (kT*kT*kA*dA*dG*dA*dA*dG*dT*dA*dT*d[5mC]*dT*k[5mC]*kT*kG; antisense) [Compound 716380]
YAP1 (% UTC) [7]: 54 % UTC

1075334 (kT*kT*kA*dA*dT*dA*dA*dT*d[5mC]*dT*dA*d[5mC]*d[5mC]*kA*kG*kT; antisense) [Compound 1075334]
YAP1 (% UTC) [12]: 60 % UTC

1074505 (kA*kA*kT*d[5mC]*dG*dA*dG*dA*dT*dT*dT*dA*dA*kA*kT*kA; antisense) [Compound 1074505]
YAP1 (% UTC) [1]: 83 % UTC

1074512 (kG*kG*kA*dT*dA*d[5mC]*dA*dT*dT*d[5mC]*d[5mC]*dA*d[5mC]*kT*kA*k[5mC]; antisense) [compound 1074512]
YAP1 (% UTC) [11]: 64 % UTC

1074313 (antisense kT*kG*kA*dT*dA*dT*dT*d[5mC]*d[5mC]*dG*d[5mC]*dA*dT*kT*kG*k[5mC]) [Compound 1074313]
YAP1 (% UTC) [1]: 5 % UTC

716464 (kT*kA*k[5mC]*dT*dT*d[5mC]*dA*dA*dA*d[5mC]*dA*dT*d[5mC]*kT*kG*k[5mC]; antisense) [Compound 716464]
YAP1 (% UTC) [7]: 62 % UTC

716489 (kA*kG*kT*dT*dA*dA*dT*dT*d[5mC]*dA*dT*dG*d[5mC]*kT*k[5mC]*kG; antisense) [Compound 716489]
YAP1 (% UTC) [10]: 23 % UTC

1074887 (antisense kT*kA*kG*d[5mC]*d[5mC]*dT*dG*dA*dA*dG*d[5mC]*dA*dA*kG*kT*kT) [Compound 1074887]
YAP1 (% UTC) [8]: 57 % UTC

1075302 (k[5mC]*k[5mC]*kT*dT*dA*dA*dA*dG*d[5mC]*dT*dT*d[5mC]*d[5mC]*kA*k[5mC]*k[5mC]; antisense) [Compound 1075302]
YAP1 (% UTC) [12]: 75 % UTC

716458 (kA*kA*kG*d[5mC]*dA*dG*dG*dG*dA*dA*dA*d[5mC]*d[5mC]*kT*kA*kA; antisense) [Compound 716458]
YAP1 (% UTC) [7]: 94 % UTC

1074406 (antisense kA*kA*kA*dG*dT*dA*dT*d[5mC]*dT*dT*dG*d[5mC]*dT*kG*kG*kA) [Compound 1074406]
YAP1 (% UTC) [12]: 16 % UTC

1076081 (kG*kA*kT*dA*dA*dT*dT*d[5mC]*dA*d[5mC]*d[5mC]*d[5mC]*dT*kT*kG*kT; antisense) [compound 1076081]
YAP1 (% UTC) [6]: 15 % UTC

1075621 (kG*kA*kT*dT*dA*dA*d[5mC]*dA*dT*dT*dG*dA*dT*kA*k[5mC]*kT; antisense) [Compound 1075621]
YAP1 (% UTC) [13]: 61 % UTC

716425 (kG*k[5mC]*kA*dA*dT*dA*d[5mC]*dA*dT*dT*dA*dA*d[5mC]*kA*kG*k[5mC]; antisense) [Compound 716425]
YAP1 (% UTC) [7]: 71 % UTC

1075888 (antisense kA*k[5mC]*kT*dT*dA*dA*dA*d[5mC]*dT*dT*dG*dA*dG*kG*kG*kA) [compound 1075888]
YAP1 (% UTC) [11]: 22 % UTC

1076326 (kG*k[5mC]*kT*dA*dA*dT*dA*dA*dT*dG*dG*dA*dA*kG*kA*kG; antisense) [Compound 1076326]
YAP1 (% UTC) [12]: 4 % UTC

1075717 (k[5mC]*kA*kT*dA*dA*dA*dT*dT*dT*d[5mC]*dA*dG*d[5mC]*k[5mC]*kG*kA; antisense) [Compound 1075717]
YAP1 (% UTC) [13]: 10 % UTC

1074181 (antisense k[5mC]*k[5mC]*k[5mC]*dG*dG*dG*dA*dT*d[5mC]*d[5mC]*dA*dT*dG*kG*k[5mC]*kT) [Compound 1074181]
YAP1 (% UTC) [13]: 107 % UTC

1074131 (kG*kG*k[5mC]*d[5mC]*d[5mC]*d[5mC]*dG*d[5mC]*dA*dT*d[5mC]*d[5mC]*d[5mC]*k[5mC]*k[5mC]*kG; antisense) [compound 1074131]
YAP1 (% UTC) [2]: 72 % UTC

1074792 (kA*kT*k[5mC]*dA*dA*dT*dG*dT*dG*d[5mC]*dT*d[5mC]*d[5mC]*kA*kT*k[5mC]; antisense) [Compound 1074792]
YAP1 (% UTC) (Table 22, Yap1 mRNA as percent of untreated control, 3-10-3 cEt gapmers, single dose): 4 % UTC

1076166 (kA*kT*kT*dT*dA*d[5mC]*dA*d[5mC]*d[5mC]*dA*d[5mC]*d[5mC]*dG*k[5mC]*k[5mC]*k[5mC]; antisense) [Compound 1076166]
YAP1 (% UTC) [12]: 77 % UTC

716422 (kA*kG*kT*dA*dT*d[5mC]*dT*dT*dG*d[5mC]*dT*dG*dG*kA*k[5mC]*kG; antisense) [Compound 716422]
YAP1 (% UTC) [7]: 39 % UTC

1075314 (antisense kA*kA*kT*dA*dA*dA*dG*dT*d[5mC]*dT*dA*dA*dT*k[5mC]*k[5mC]*kA) [compound 1075314]
YAP1 (% UTC) [9]: 54 % UTC

From patent US11214803B2, “Modulators of YAP1 expression” (Ionis Pharmaceuticals, Inc., priority 2019, dated 2022)
